What follows are compounds tested against T1, GID4 (Uniprot ID: Q81VV7, residues 124-289) (Homo sapiens, UniProt Q8IVV7) (assay: GID4 competitive binding assay (AlphaScreen, GID4/degron peptide PGLW)). Conditions: 24 nM GID4, 48 nM biotinylated degron peptide PGLW, 4° C., read-out: IC50 (Inhibition of GID4/Degron binding by test compounds).
T1 construct: GID4 (Uniprot ID: Q81VV7, residues 124-289)
T1 sequence (Q8IVV7 124-289): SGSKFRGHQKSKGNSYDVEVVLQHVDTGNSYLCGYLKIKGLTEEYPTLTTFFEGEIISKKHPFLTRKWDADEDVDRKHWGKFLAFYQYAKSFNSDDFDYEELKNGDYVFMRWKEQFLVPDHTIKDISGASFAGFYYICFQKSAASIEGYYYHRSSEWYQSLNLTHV
Summary of the method: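 Displacement of biotin-tagged degron tetrapeptide PGLW (48 nM) from C-terminally 6His-tagged GID4 124-289 (24 nM) read by AlphaScreen proximity signal. Compound incubation 2 h, then beads 1 h, all at 4 °C, pH 7.5, 2% DMSO final; background-corrected inhibition fitted with variable slope for IC50.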
`CNc1cc(N2CCCC(c3cnc4ccccn34)C2)nc(C(C)C)n1` (single isomer, unassigned) [Compound 125, (S/R)-6-(3-(imidazo[1,2-a]pyridin-3-yl)piperidin-1-yl)-2-isopropyl-N-methylpyrimidin-4-amine] was tested, and the IC50 was 500 to 5000 nM. With `CNc1nc(C)cc(Nc2cccc(-c3cnccn3)c2)n1` [Compound 190, N2,6-dimethyl-N4-(3-(pyrazin-2-yl)phenyl)pyrimidine-2,4-diamine] the IC50 was over 5000 nM. For `Nc1nccc2c(O)cc(-c3cccc(C(=O)N4CCCC4)c3)cc12` [Compound 266, (3-(1-amino-5-hydroxyisoquinolin-7-yl)phenyl)(pyrrolidin-1-yl)methanone], the IC50 was over 5000 nM. `CN(C)CCCNC(=O)c1cc(-c2cc(O)c3ncccc3c2)co1` [Compound 283, N-(3-(dimethylamino)propyl)-4-(8-hydroxyquinolin-6-yl)furan-2-carboxamide] showed an IC50 of under 500 nM. In the case of `CN(C)C1CCN(C(=O)c2cccc(-c3ccc4c(=O)[nH]ccc4c3)c2)C1` (stereo not shown) [Compound 350, 6-(3-(3-(dimethylamino)pyrrolidine-1-carbonyl)phenyl)isoquinolin-1(2H)-one], the IC50 is reported as over 5000 nM. `CC(C)c1cc(N2CCNC(c3cc(C(=O)N4CCN(C)CC4)ccc3Br)C2)nc(N)n1` (single isomer, unassigned) [Compound 17, (R/S)-(3-(4-(2-amino-6-isopropylpyrimidin-4-yl)piperazin-2-yl)-4-bromophenyl)(4-methylpiperazin-1-yl)methanone] gave an IC50 of under 500 nM. Work on `Nc1nccc2ccc(-c3ccc4[nH][nH]c(=O)c4c3)cc12` [Compound 1, 5-(1-aminoisoquinolin-7-yl)-1,2-dihydro-3H-indazol-3-one] yielded an IC50 of 500 to 5000 nM. `CN1CCC(NC(=O)c2n[nH]c3ccc(-c4ccc5ccnc(N)c5c4)cc23)CC1` [Compound 338, 5-(1-aminoisoquinolin-7-yl)-N-(1-methylpiperidin-4-yl)-1H-indazole-3-carboxamide] showed an IC50 of under 500 nM. `CC(C)c1cc(N2CCCC(O)(c3cnc4ccccn34)C2)nc(N)n1` (stereo not shown) [Compound 243, 1-(2-amino-6-isopropylpyrimidin-4-yl)-3-(imidazo[1,2-a]pyridin-3-yl)piperidin-3-ol] gave an IC50 of over 5000 nM. `CC(C)c1cc(N2CCNC(c3nnc[nH]3)C2)nc(N)n1` (stereo not shown) [Compound 204, 4-(3-(4H-1,2,4-triazol-3-yl)piperazin-1-yl)-6-isopropylpyrimidin-2-amine] gave an IC50 of over 5000 nM. Compound `CC(C)c1cc(N2CCCC(F)(c3ccccc3Br)C2)nc(N)n1` (stereo not shown) [Compound 233, 4-(3-(2-bromophenyl)-3-fluoropiperidin-1-yl)-6-isopropylpyrimidin-2-amine] has an IC50 of 500 to 5000 nM. `CN(C)CCCNC(=O)c1ncc(-c2cc(O)c3ncccc3c2)[nH]1` [Compound 275, N-(3-(dimethylamino)propyl)-5-(8-hydroxyquinolin-6-yl)-1H-imidazole-2-carboxamide] gave an IC50 of under 500 nM. `Oc1cc(C2=CCNCC2)cc2cccnc12` [Compound 324, 6-(1,2,3,6-tetrahydropyridin-4-yl)quinolin-8-ol] gave an IC50 of 500 to 5000 nM. `CN1CCC(NC(=O)c2ccc(-c3cc(O)c4ncccc4c3)cc2)CC1` [Compound 297, 4-(8-hydroxyquinolin-6-yl)-N-(1-methylpiperidin-4-yl)benzamide] gave an IC50 of under 500 nM. For `CN(C)CCNC(=O)c1ccc(Br)c(C2CN(c3cc(N)nc(N)n3)CCN2)c1` (stereo not shown) [Compound 9, 4-bromo-3-(4-(2,6-diaminopyrimidin-4-yl)piperazin-2-yl)-N-(2-(dimethylamino)ethyl)benzamide], the IC50 was under 500 nM. `CNc1cc(N2CCCC(c3csc4ccccc34)C2)nc(N)n1` (stereo not shown) [Compound 82, 6-(3-(benzo[b]thiophen-3-yl)piperidin-1-yl)-N4-methylpyrimidine-2,4-diamine] was tested, and the IC50 was 500 to 5000 nM. Work on `CNc1cc(N2CCN(C)[C@H](c3ccccc3Br)C2)nc(N)n1` (stereo in doubt) [Compound 154] yielded an IC50 of 500 to 5000 nM. Work on `CC(C)c1cc(N2CCNC(c3cc(N4CC(CO)C4)ccc3Br)C2)nc(N)n1` (single isomer, unassigned) [Compound 31, (S/R)-(1-(3-(4-(2-amino-6-isopropylpyrimidin-4-yl)piperazin-2-yl)-4-bromophenyl)azetidin-3-yl)methanol] yielded an IC50 of 500 to 5000 nM. In the case of `Nc1nc(NC2CC2)cc(N2CCOC(c3ccccc3)C2)n1` (single isomer, unassigned) [Compound 96, (R/S)-N4-cyclopropyl-6-(2-phenylmorpholino)pyrimidine-2,4-diamine], the IC50 is reported as over 5000 nM. For `CC(C)c1cc(N2CCCC(c3cnc4ccccn34)C2)c2cc[nH]c2n1` (stereo not shown) [Compound 370, 3-(1-(6-isopropyl-1H-pyrrolo[2,3-b]pyridin-4-yl)piperidin-3-yl)imidazo[1,2-a]pyridine], the IC50 was under 500 nM. Work on `CN(C)CCCNC(=O)c1ccc(-c2cc(O)c3ncccc3c2)cc1Br` [Compound 313, 2-bromo-N-(3-(dimethylamino)propyl)-4-(8-hydroxyquinolin-6-yl)benzamide] yielded an IC50 of 500 to 5000 nM. For `CN(C)CCCNC(=O)c1c(F)cc(-c2cc(O)c3ncccc3c2)cc1F` [Compound 314, N-(3-(dimethylamino)propyl)-2,6-difluoro-4-(8-hydroxyquinolin-6-yl)benzamide], the IC50 was 500 to 5000 nM. For `CNc1cc(N2CCN[C@H](c3ccccc3Br)C2)nc(NC)n1` (stereo in doubt) [Compound 131, (R/S)-6-(3-(2-bromophenyl)piperazin-1-yl)-N2,N4-dimethylpyrimidine-2,4-diamine], the IC50 was under 500 nM. With `CC(C)c1cc(N2CCNC(c3cnc4ccccn34)C2)nc(N)n1` (stereo not shown) [Compound 32, 4-(3-(imidazo[1,2-a]pyridin-3-yl)piperazin-1-yl)-6-isopropylpyrimidin-2-amine] the IC50 was under 500 nM. `CC(C)c1cc(N2CCC(c3cnc4ccccn34)C2)nc(N)n1` (stereo not shown) [Compound 253, 4-(3-(imidazo[1,2-a]pyridin-3-yl)pyrrolidin-1-yl)-6-isopropylpyrimidin-2-amine] was tested, and the IC50 was 500 to 5000 nM. Compound `CC(C)c1cc(N2CCNC(c3cc(N4CCNCC4)ccc3Br)C2)nc(N)n1` (stereo not shown) [Compound 41, 4-(3-(2-bromo-5-(piperazin-1-yl)phenyl)piperazin-1-yl)-6-isopropylpyrimidin-2-amine] has an IC50 of under 500 nM. In the case of `CN(C)CCNC(=O)c1n[nH]c2ccc(-c3ccc4ccnc(N)c4c3)cc12` [Compound 341, 5-(1-aminoisoquinolin-7-yl)-N-(2-(dimethylamino)ethyl)-1H-indazole-3-carboxamide], the IC50 is reported as under 500 nM. For `Nc1nc(N2CCNC(c3ccccc3Br)C2)c2cc[nH]c2n1` (single isomer, unassigned) [Compound 56, (R/S)-4-(3-(2-bromophenyl)piperazin-1-yl)-7H-pyrrolo[2,3-d]pyrimidin-2-amine], the IC50 was 500 to 5000 nM. `CN(C)CCCC(=O)N1CC=C(c2cc(O)c3ncccc3c2)CC1` [Compound 309, 4-(dimethylamino)-1-(4-(8-hydroxyquinolin-6-yl)-3,6-dihydropyridin-1(2H)-yl)butan-1-one] was tested, and the IC50 was 500 to 5000 nM. With `CNc1cc(N2CCCC(n3nnc4ccccc43)C2)nc(N)n1` (stereo not shown) [Compound 93, 6-(3-(1H-benzo[d][1,2,3]triazol-1-yl)piperidin-1-yl)-N4-methylpyrimidine-2,4-diamine] the IC50 was over 5000 nM. `Nc1nc(N)c(F)c(N2CCOC(c3ccccc3Br)C2)n1` (single isomer, unassigned) [Compound 49, (R/S)-6-(2-(2-bromophenyl)morpholino)-5-fluoropyrimidine-2,4-diamine] gave an IC50 of over 5000 nM. Compound `Nc1nc2c(c(N3CCCC(c4ccn[nH]4)C3)n1)CCCN2` (stereo not shown) [Compound 187, 4-(3-(1H-pyrazol-5-yl)piperidin-1-yl)-5,6,7,8-tetrahydropyrido[2,3-d]pyrimidin-2-amine] has an IC50 of 500 to 5000 nM. Work on `CN(C)CCCNC(=O)c1ccc(-c2cc(O)c3ncccc3c2)nc1` [Compound 294, N-(3-(dimethylamino)propyl)-6-(8-hydroxyquinolin-6-yl)nicotinamide] yielded an IC50 of under 500 nM. For `CC(C)c1cc(N2CCCC(c3c[nH]c4ccccc34)C2)nc(N)n1` (stereo not shown) [Compound 249, 4-(3-(1H-indol-3-yl)piperidin-1-yl)-6-isopropylpyrimidin-2-amine], the IC50 was 500 to 5000 nM. `Nc1nc(C2CC2)cc(N2CCNC(c3cnc4ccccn34)C2)n1` (single isomer, unassigned) [Compound 104, (R/S)-4-cyclopropyl-6-(3-(imidazo[1,2-a]pyridin-3-yl)piperazin-1-yl)pyrimidin-2-amine] was tested, and the IC50 was over 5000 nM. In the case of `CC(C)c1nc(N2CCNC(c3cnc4ccccn34)C2)c2cc[nH]c2n1` (stereo not shown) [Compound 375, 4-(3-(imidazo[1,2-a]pyridin-3-yl)piperazin-1-yl)-2-isopropyl-7H-pyrrolo[2,3-d]pyrimidine], the IC50 is reported as under 500 nM. `Nc1nc(N)c(F)c(N2CCOC(c3ccccc3Br)C2)n1` (single isomer, unassigned) [Compound 48, (S/R)-6-(2-(2-bromophenyl)morpholino)-5-fluoropyrimidine-2,4-diamine] was tested, and the IC50 was over 5000 nM. Work on `CC(C)c1cc(N2CCNC(c3cnc4ccccn34)C2)c2cc[nH]c2n1` (single isomer, unassigned) [Compound 372, (S/R)-3-(4-(6-isopropyl-1H-pyrrolo[2,3-b]pyridin-4-yl)piperazin-2-yl)imidazo[1,2-a]pyridine] yielded an IC50 of under 500 nM. With `CNc1cc(N2CCN[C@@H](c3ccccc3)C2)nc(N)n1` (racemic) [Compound 129, (S/R)-N4-methyl-6-(3-phenylpiperazin-1-yl)pyrimidine-2,4-diamine] the IC50 was 500 to 5000 nM. Work on `CCc1ccccc1C1CN(c2cc(C(C)C)nc(N)n2)CCN1` (stereo not shown) [Compound 168, 4-(3-(2-ethylphenyl)piperazin-1-yl)-6-isopropylpyrimidin-2-amine] yielded an IC50 of 500 to 5000 nM.
